Article PMC8365602 (Journal of Medicinal Chemistry, 2021)

How the values were obtained:
PBMC = PBMC viability (MTT, mitochondrial dehydrogenase activity); type: cell-based, human; settings: ≤1 μM, 24 h
Experimental: To measure mitochondrial dehydrogenase activity, 3-(4,5-dimethylthiazol-2-yl)-2,5-diphenyltetrazolium bromide (MTT) (20 μL, 5 mg/mL, Sigma-Aldrich) was added to PBMC. After 4 h in the darkness, the formed formazan product was solubilized (10% SDS in 20 mM HCl) and the absorbance was read at 570 nm using a Multiskan Spectrum microplate reader (Thermo Fisher Scientific).[81]

human keratinocytes = assay: Keratinocyte cytotoxicity (MTT) in the RHE model; type: cell-based; settings: MTT assay
Experimental: Compound 27a was evaluated in an inflammatory model of RHE by Synelvia S.A.S. (Labège, France) according to the company’s protocol.[88] In brief, primary human keratinocytes were used to generate RHE on polycarbonate filters as described.[88] RHE was allowed to acclimate for 6 days (5% CO2, 37 °C) prior to incubation with 27a (5, 10, 25 μM), dexamethasone (1 μM), or vehicle (0.05% DMSO), and a proinflammatory cytokine cocktail for 4 days at 5% CO2 and 37 °C. The culture medium including compounds and cytokines was changed on days 6, 8, and 10. Each culture condition was repeated three times. Acute cytotoxicity of 27a was excluded at the concentrations studied within 24 h by measuring the mitochondrial dehydrogenase activity (MTT assay).

Question: What does the source list for C/C(=C\CC/C(C)=C/CC[C@]1(C)CCc2c(C)c(O)c(C)c(C)c2O1)CCC=C(CO)CO [Compound 27a, α-amplexichromanol]?
Answer: Mitochondrial dehydrogenase activity in PBMC (cell viability) (PBMC): impaired neither mitochondrial dehydrogenase activity; Cytotoxic effects on human keratinocytes (human keratinocytes): excluded
